Test system: T1, soluble phosphatidic acid phosphatase (PAP), Mg2+-independent, partially purified from bitter melon cotyledons
T1 construct: many copurified proteins, no PAP peptide found by LC/MS/MS
Experiment: Pi release, ammonium molybdate-acetone-acid, A355
Type: biochemical, Momordica charantia
Conditions: pH 6.5, 53°C, 0.3 mM MgCl2, 50 mM imidazole, DPA 0-500 µM, sigmoidal curve

Structure (SMILES): CCCCCCCC/C=C\CCCCCCCC(=O)OC[C@H](COP(=O)(O)O)OC(=O)CCCCCCC/C=C\CCCCCCCC [DPA, 1,2-dioleoyl-sn-glycero-3-phosphate]
- Km: 595 µM

Source: article PMC4159287, “Characterization of a Soluble Phosphatidic Acid Phosphatase in Bitter Melon (Momordica charantia)” (PLoS ONE, 2014)
